The structures appear in SMILES notation. Read-outs that look alike come from different tables or passages of the source.

The test addresses T1, F508delCFTR (Homo sapiens, UniProt P13569, DEL508-508).
T1 construct: expressed in transfected cells; host or cells: CFBE41o- human lung-derived epithelial cells (CFBE4lo-F508delCFTR-HRP), doxycycline-inducible
Description: Cell Surface Expression-Horse Radish Peroxidase (CSE-HRP) Assay.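 For Maximum % activity (with co-corrector): co-corrector and positive control are both the same reference corrector at 2 µM.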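 For Maximum % activity (without co-corrector): percent of the 2 µM on-plate positive control corrector response above DMSO.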 The settings on record: for Maximum % activity (with co-corrector): with co-corrector (2 μM); for Maximum % activity (with co-corrector) / Emax: maximum at any tested concentration, normalized to on-plate positive control; for Emax: without co-corrector, read-out: Maximum % activity (without co-corrector). It counts as cell-based.

[1] abbreviates: test compound without co-corrector, read-out: EC50 (without co-corrector).
Where [2] appears, read: with co-corrector (2 μM of 3-[(2R,4R)-4-({[1-(2,2-difluoro-1,3-benzodioxol-5-yl)cyclopropyl]carbonyl}amino)-7-methoxy-3,4-dihydro-2H-chromen-2-yl]benzoic acid), read-out: EC50 (with co-corrector).

T1 sequence (P13569 with tags, fused parts or gaps DEL508-508): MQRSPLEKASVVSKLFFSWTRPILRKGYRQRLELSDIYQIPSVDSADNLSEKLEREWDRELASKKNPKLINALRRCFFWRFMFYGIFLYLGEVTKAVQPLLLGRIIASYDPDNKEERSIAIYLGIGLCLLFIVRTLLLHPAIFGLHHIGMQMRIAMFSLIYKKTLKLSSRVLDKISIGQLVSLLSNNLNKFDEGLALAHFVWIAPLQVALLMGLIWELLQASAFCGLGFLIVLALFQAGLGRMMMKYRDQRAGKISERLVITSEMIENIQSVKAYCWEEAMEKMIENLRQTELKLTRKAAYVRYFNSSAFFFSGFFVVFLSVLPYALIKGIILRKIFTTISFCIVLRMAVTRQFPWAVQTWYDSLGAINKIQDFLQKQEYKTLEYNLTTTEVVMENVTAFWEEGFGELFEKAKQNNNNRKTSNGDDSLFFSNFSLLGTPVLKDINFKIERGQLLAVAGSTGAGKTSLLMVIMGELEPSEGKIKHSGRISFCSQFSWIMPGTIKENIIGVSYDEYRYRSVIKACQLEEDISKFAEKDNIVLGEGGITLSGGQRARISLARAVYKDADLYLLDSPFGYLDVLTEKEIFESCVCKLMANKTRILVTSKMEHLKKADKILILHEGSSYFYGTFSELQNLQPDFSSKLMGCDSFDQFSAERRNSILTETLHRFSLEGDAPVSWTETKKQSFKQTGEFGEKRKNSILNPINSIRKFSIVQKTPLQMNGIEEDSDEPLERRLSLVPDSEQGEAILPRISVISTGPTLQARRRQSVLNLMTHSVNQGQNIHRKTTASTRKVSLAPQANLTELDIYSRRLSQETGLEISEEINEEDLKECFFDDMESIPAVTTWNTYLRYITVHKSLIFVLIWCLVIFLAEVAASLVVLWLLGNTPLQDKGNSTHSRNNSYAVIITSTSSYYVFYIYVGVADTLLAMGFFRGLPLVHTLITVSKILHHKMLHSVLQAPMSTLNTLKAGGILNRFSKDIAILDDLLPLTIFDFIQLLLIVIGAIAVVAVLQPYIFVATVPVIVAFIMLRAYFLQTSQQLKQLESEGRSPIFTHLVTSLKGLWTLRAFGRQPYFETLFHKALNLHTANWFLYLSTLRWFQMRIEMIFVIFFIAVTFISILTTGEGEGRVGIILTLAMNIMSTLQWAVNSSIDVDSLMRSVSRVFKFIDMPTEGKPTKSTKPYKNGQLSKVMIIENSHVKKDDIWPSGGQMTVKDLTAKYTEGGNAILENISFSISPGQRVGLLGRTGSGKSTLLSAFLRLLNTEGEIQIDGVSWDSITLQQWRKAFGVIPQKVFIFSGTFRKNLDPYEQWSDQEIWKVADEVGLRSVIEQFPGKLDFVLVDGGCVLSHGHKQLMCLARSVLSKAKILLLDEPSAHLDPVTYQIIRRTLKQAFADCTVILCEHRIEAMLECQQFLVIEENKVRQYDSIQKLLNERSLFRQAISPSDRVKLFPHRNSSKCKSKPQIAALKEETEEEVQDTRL

As a reminder, the EC50 is the concentration at which the effect is half-maximal. On to `COc1ccc(C(C)(C)C)cc1CN[C@H]1[C@H](C(C)(C)C)[C@@H](C(=O)O)N(C(=O)c2cc3occc3n2C)[C@H]1c1ccccc1` [Example I-102], for which the “Maximum % activity (with co-corrector)” value is “+++ (≥350)” and the Emax is 100 to 200%. For the same compound, under setting [1], the EC50 was 1000 to 10000 nM. Also, the concentration giving a half-maximal response (EC50) under setting [2] was in the range of 1000 to 10000 nM.
`COc1ccc(C(C)(C)C)cc1CN[C@H]1[C@H](C(C)(C)C)[C@@H](C(=O)O)N(C(=O)C(C)n2cc(Cl)cn2)[C@H]1c1ccccc1` (some centres unmarked) [Example I-103]: the “Maximum % activity (with co-corrector)” value was “+++ (≥350)” and the Emax lay in the range of 100 to 200%. For the same compound, under setting [1], the EC50 lay in the range of 1000 to 10000 nM. Under setting [2], the EC50 lay in the range of 1000 to 10000 nM.
`COc1ccc(C(C)C)cc1CN[C@H]1[C@H](C(C)(C)C)[C@@H](C(=O)O)N(C(=O)C2CCCCC2)[C@H]1c1ccc(F)cc1` [Example I-109]: the “Maximum % activity (with co-corrector)” value is recorded as “+++ (≥350)” and the Emax is over 200%. The EC50 under setting [1] lay in the range of 1000 to 10000 nM. The concentration for a half-maximal effect (EC50) under setting [2] is under 1000 nM.
The corresponding values for `COc1ncc(C(F)(F)F)cc1CN[C@H]1[C@H](C(C)(C)C)[C@@H](C(=O)O)N(C(=O)C2CCCCC2)[C@H]1c1ccccc1F` [Example I-110] are “+++ (≥350)”, under 100%, under 1000 nM and under 1000 nM.
For `COc1ccc(C(C)C)cc1CN[C@H]1[C@H](C(C)(C)C)[C@@H](C(=O)O)N(C(=O)C2CCCCC2)[C@H]1c1ccccc1F` [Example I-111], in that order: “+++ (≥350)”, 100 to 200%, 1000 to 10000 nM and under 1000 nM.
The corresponding values for `COc1ccc(C(C)(C)C)cc1CN[C@H]1[C@H](C(C)(C)C)[C@@H](C(=O)O)N(C(=O)C2CCCCC2)[C@H]1c1ccc(F)cc1` [Example I-112] are “+++ (≥350)”, over 200%, under 1000 nM and under 1000 nM.
On to `COc1ccc(-c2cncnc2)cc1CN[C@H]1[C@H](C(C)(C)C)[C@@H](C(=O)O)N(C(=O)C2CCCCC2)[C@H]1c1ccccc1` [Example I-114], for which the “Maximum % activity (with co-corrector)” value is “++ (≥150 and <350)”; the Emax is under 100%. Moreover, under setting [1], the EC50 was 1000 to 10000 nM. The half-maximal effective concentration (EC50) under setting [2] lay in the range of 1000 to 10000 nM.
Consider `COc1ncc(C2CCC2)cc1CN[C@H]1[C@H](C(C)(C)OC)[C@@H](C(=O)O)N(C(=O)C2CCCCC2)[C@H]1c1ccccc1` [Example I-115], for which the “Maximum % activity (with co-corrector)” value was “+++ (≥350)” and the Emax is over 200%. Also, the EC50 under setting [1] was 1000 to 10000 nM. The concentration giving a half-maximal response (EC50) under setting [2] is under 1000 nM.
For `COc1ncc(C2CCCC2)cc1CN[C@H]1[C@H](C(C)(C)OC)[C@@H](C(=O)O)N(C(=O)C2CCCCC2)[C@H]1c1ccccc1` [Example I-116], in that order: “+++ (≥350)”, 100 to 200%, under 1000 nM and under 1000 nM.
`COc1ccc(C2CC3CCC2C3)cc1CN[C@H]1[C@H](C(C)(C)OC)[C@@H](C(=O)O)N(C(=O)C2CCCCC2)[C@H]1c1ccccc1` (some centres unmarked) [Example I-117]: the “Maximum % activity (with co-corrector)” value is on record as “+++ (≥350)” and the Emax was over 200%. Under setting [1], the half-maximal effective concentration (EC50) lay in the range of 1000 to 10000 nM. Further, under setting [2], the EC50 is under 1000 nM.
For `COc1ccc(CC2CCCCC2)cc1CN[C@H]1[C@H](C(C)(C)OC)[C@@H](C(=O)O)N(C(=O)C2CCCCC2)[C@H]1c1ccccc1` [Example I-118], in that order: “+++ (≥350)”, over 200%, under 1000 nM and under 1000 nM.
With `COc1ccc(C(C)(C)C)cc1CN[C@H]1[C@H](C(C)(C)C)[C@@H](C(=O)O)N(C(=O)OC2CCCC2)[C@H]1c1ccccc1` [Example I-119], the “Maximum % activity (with co-corrector)” value is “+++ (≥350)” and the Emax is over 200%. For the same compound, the EC50 under setting [1] was in the range of 1000 to 10000 nM. The EC50 under setting [2] is under 1000 nM.
The corresponding values for `COc1ncc(C(F)(F)F)cc1CN[C@H]1[C@H](C(C)(C)C)[C@@H](C(=O)O)N(C(=O)C2CCCCC2)[C@H]1c1cccnc1N(C)C` [Example I-120] are “+++ (≥350)”, 100 to 200%, 1000 to 10000 nM and 1000 to 10000 nM.
Turning to `COc1ccc(C(F)(F)F)cc1CN[C@H]1[C@H](C(C)(C)C)[C@@H](C(=O)O)N(C(=O)[C@@H]2CCCC(F)(F)C2)[C@H]1c1ccccc1` [Example I-124], the “Maximum % activity (with co-corrector)” value is recorded as “+++ (≥350)” and the Emax is under 100%. Further, under setting [1], the concentration for a half-maximal effect (EC50) was 1000 to 10000 nM. For the same compound, the EC50 under setting [2] was in the range of 1000 to 10000 nM.
For the compound `COc1ccc(-c2ccnnc2)cc1CN[C@H]1[C@H](C(C)(C)C)[C@@H](C(=O)O)N(C(=O)C2CCCCC2)[C@H]1c1ccccc1` [Example I-125], the “Maximum % activity (with co-corrector)” value was “+ (<150)” and the Emax is under 100%. The EC50 under setting [1] was over 10000 nM. Further, the concentration giving a half-maximal response (EC50) under setting [2] was over 10000 nM.
Consider `COc1ccc(-c2ccccc2F)cc1CN[C@H]1[C@H](C(C)(C)C)[C@@H](C(=O)O)N(C(=O)C2CCCCC2)[C@H]1c1ccccc1` [Example I-126], for which the “Maximum % activity (with co-corrector)” value is recorded as “+++ (≥350)” and the Emax was over 200%. For the same compound, the half-maximal effective concentration (EC50) under setting [1] is under 1000 nM. Also, the EC50 under setting [2] was under 1000 nM.
Take `COc1ccc(-c2sc(C)nc2C)cc1CN[C@H]1[C@H](C(C)(C)C)[C@@H](C(=O)O)N(C(=O)C2CCCCC2)[C@H]1c1ccccc1` [Example I-127]: the “Maximum % activity (with co-corrector)” value is reported as “+++ (≥350)” and the Emax is 100 to 200%. Further, under setting [1], the EC50 fell in the range of 1000 to 10000 nM. Also, under setting [2], the EC50 was 1000 to 10000 nM.
Take `COc1ccc(-c2ccccc2C#N)cc1CN[C@H]1[C@H](C(C)(C)C)[C@@H](C(=O)O)N(C(=O)C2CCCCC2)[C@H]1c1ccccc1` [Example I-128]: the “Maximum % activity (with co-corrector)” value was “+++ (≥350)” and the Emax fell in the range of 100 to 200%. Under setting [1], the concentration giving a half-maximal response (EC50) lay in the range of 1000 to 10000 nM. For the same compound, under setting [2], the concentration for a half-maximal effect (EC50) lay within 1000 to 10000 nM.
Take `COc1ccc(C2=CCOCC2)cc1CN[C@H]1[C@H](C(C)(C)C)[C@@H](C(=O)O)N(C(=O)C2CCCCC2)[C@H]1c1ccccc1` [Example I-129]: the “Maximum % activity (with co-corrector)” value was “+++ (≥350)” and the Emax was in the range of 100 to 200%. Under setting [1], the half-maximal effective concentration (EC50) lay within 1000 to 10000 nM. The concentration for a half-maximal effect (EC50) under setting [2] lay in the range of 1000 to 10000 nM.
In the case of `COc1ncc(C(C)(C)C)cc1CN[C@H]1[C@H](C(C)(C)C)[C@@H](C(=O)O)N(C(=O)C2CCCCC2)[C@H]1c1ccc(F)cc1` [Example I-130], the “Maximum % activity (with co-corrector)” value is reported as “+++ (≥350)” and the Emax is over 200%. Further, the EC50 under setting [1] is under 1000 nM. Moreover, the EC50 under setting [2] is under 1000 nM.
Regarding `COc1ncc(C2CCC2)cc1CN[C@H]1[C@H](C(C)(C)C)[C@@H](C(=O)O)N(C(=O)C2CCCCC2)[C@H]1c1cccnc1N(C)C` [Example I-131], the “Maximum % activity (with co-corrector)” value is “+++ (≥350)” and the Emax is over 200%. The EC50 under setting [1] was in the range of 1000 to 10000 nM. Moreover, under setting [2], the EC50 was in the range of 1000 to 10000 nM.
Regarding `COc1ncc(C2CCCC2)cc1CN[C@H]1[C@H](C(C)(C)C)[C@@H](C(=O)O)N(C(=O)C2CCCCC2)[C@H]1c1cccnc1N(C)C` [Example I-132], the “Maximum % activity (with co-corrector)” value is on record as “+++ (≥350)” and the Emax was over 200%. For the same compound, the EC50 under setting [1] is 1000 to 10000 nM. In addition, the EC50 under setting [2] was in the range of 1000 to 10000 nM.
For the compound `COc1ncc(C2CC3CCC2C3)cc1CN[C@H]1[C@H](C(C)(C)C)[C@@H](C(=O)O)N(C(=O)C2CCCCC2)[C@H]1c1cccnc1N(C)C` (some centres unmarked) [Example I-133], the “Maximum % activity (with co-corrector)” value is recorded as “+++ (≥350)” and the Emax was over 200%. In addition, under setting [1], the 50% effective concentration (EC50) fell in the range of 1000 to 10000 nM. For the same compound, the half-maximal effective concentration (EC50) under setting [2] fell in the range of 1000 to 10000 nM.
In the case of `COc1ccc(Br)nc1CN[C@H]1[C@H](C(C)(C)C)[C@@H](C(=O)O)N(C(=O)C2CCCCC2)[C@H]1c1ccccc1` [Example I-134], the “Maximum % activity (with co-corrector)” value was “+++ (≥350)” and the Emax lay in the range of 100 to 200%. In addition, the EC50 under setting [1] lay in the range of 1000 to 10000 nM. The EC50 under setting [2] fell in the range of 1000 to 10000 nM.
For the compound `COc1ncc(C(C)(C)C)cc1CN[C@H]1[C@H](C(C)(C)C)[C@@H](C(=O)O)N(C(=O)C2CCCCC2)[C@H]1c1cccnc1OC` [Example I-135], the “Maximum % activity (with co-corrector)” value is on record as “+++ (≥350)” and the Emax is over 200%. Moreover, the EC50 under setting [1] lay within 1000 to 10000 nM. The concentration giving a half-maximal response (EC50) under setting [2] was in the range of 1000 to 10000 nM.
In the case of `COc1ccc(C(F)(F)F)cc1CN[C@H]1[C@H](C2(C)CC2)[C@@H](C(=O)O)N(C(=O)C2CCCCC2)[C@H]1c1ccccc1` [Example I-136], the “Maximum % activity (with co-corrector)” value is reported as “+++ (≥350)” and the Emax is 100 to 200%. In addition, the concentration giving a half-maximal response (EC50) under setting [1] was 1000 to 10000 nM. Besides, the concentration giving a half-maximal response (EC50) under setting [2] is 1000 to 10000 nM.
`COc1ccc(C(C)(C)C)cc1CN[C@H]1[C@H](C(C)(C)C)[C@@H](C(=O)O)N(C(=O)[C@@H](C)Oc2ccccc2)[C@H]1c1ccccc1` [Example I-137]: the “Maximum % activity (with co-corrector)” value is “+++ (≥350)” and the Emax is over 200%. Besides, the 50% effective concentration (EC50) under setting [1] lay within 1000 to 10000 nM. The half-maximal effective concentration (EC50) under setting [2] is 1000 to 10000 nM.
Take `COc1ccc(C(C)(C)C)cc1CN[C@H]1[C@H](C(C)(C)C)[C@@H](C(=O)O)N(C(=O)C2CCCCN2S(C)(=O)=O)[C@H]1c1ccccc1` (some centres unmarked) [Example I-138]: the “Maximum % activity (with co-corrector)” value is recorded as “+++ (≥350)” and the Emax is over 200%. Moreover, under setting [1], the EC50 lay within 1000 to 10000 nM. Further, under setting [2], the 50% effective concentration (EC50) was in the range of 1000 to 10000 nM.
Take `COc1ncc(-c2ccccc2F)cc1CN[C@H]1[C@H](C(C)(C)C)[C@@H](C(=O)O)N(C(=O)C2CCCCC2)[C@H]1c1ccccc1` [Example I-140]: the “Maximum % activity (with co-corrector)” value is listed as “+++ (≥350)” and the Emax was over 200%. In addition, the EC50 under setting [1] was under 1000 nM. The concentration giving a half-maximal response (EC50) under setting [2] was under 1000 nM.
